Assay results taken from PubChem BioAssay (NCI).
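GI50 is the concentration that inhibits growth by half. The concentration for full growth arrest is given as TGI.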

Columns and labels:
Test in all cases: NCI-60 cell line screen, 384-well format
CCRF-CEM leukemia = test system: CCRF-CEM leukemia
HCC-2998 colon = test system: HCC-2998 colon
HOP-62 NSCLC = test system: HOP-62 NSCLC
HT29 colon = test system: HT29 colon
K-562 leukemia = test system: K-562 leukemia
MDA-MB-231 breast = test system: MDA-MB-231 breast
NCI-H460 NSCLC = test system: NCI-H460 NSCLC
NCI-H522 lung = test system: NCI-H522 lung
OVCAR-4 ovarian = test system: OVCAR-4 ovarian
SNB-75 CNS = test system: SNB-75 CNS
SR leukemia = test system: SR leukemia
TK-10 renal = test system: TK-10 renal
UACC-257 melanoma = test system: UACC-257 melanoma

SMILES | GI50 (CCRF-CEM leukemia) | TGI (CCRF-CEM leukemia) | GI50 (HCC-2998 colon) | TGI (HCC-2998 colon) | GI50 (HOP-62 NSCLC) | TGI (HOP-62 NSCLC) | GI50 (HT29 colon) | TGI (HT29 colon) | GI50 (K-562 leukemia) | TGI (K-562 leukemia) | GI50 (MDA-MB-231 breast) | TGI (MDA-MB-231 breast) | GI50 (NCI-H460 NSCLC) | TGI (NCI-H460 NSCLC) | GI50 (NCI-H522 lung) | TGI (NCI-H522 lung) | GI50 (OVCAR-4 ovarian) | TGI (OVCAR-4 ovarian) | GI50 (SNB-75 CNS) | TGI (SNB-75 CNS) | further results
Cc1cc(F)c(C(=O)Nc2cccc(-c3nncn3C(C)C)n2)cc1-n1cnc(C2CC2)c1 | 7.73 µM | 20.2 µM | 16.7 µM | 57.2 µM | 8.04 µM | 29.3 µM | 22 µM | > 94.4 µM | 5.52 µM | 21.3 µM | 15.3 µM | > 85.9 µM | 12.9 µM | 43 µM | 3.31 µM | 13.7 µM | 17.2 µM | 38.5 µM | 13.5 µM | 27.6 µM | GI50 (SR leukemia): 3.62 µM; TGI (SR leukemia): 11.2 µM; GI50 (TK-10 renal): 14.8 µM; TGI (TK-10 renal): > 68.2 µM; GI50 (UACC-257 melanoma): 16.7 µM; TGI (UACC-257 melanoma): 31.2 µM
C[C@@H](Nc1nc(N[C@H](C)C(F)(F)F)nc(-c2cccc(Cl)n2)n1)C(F)(F)F | > 100 µM | > 100 µM | > 80.1 µM | > 100 µM | 28.5 µM | > 65.4 µM | > 100 µM | > 100 µM | > 100 µM | > 100 µM | 27.9 µM | > 83.3 µM | 36.4 µM | > 100 µM | > 100 µM | > 100 µM | 21.7 µM | 55 µM | 29.5 µM | > 75.4 µM | GI50 (SR leukemia): > 77.3 µM; TGI (SR leukemia): > 100 µM; GI50 (TK-10 renal): > 52.4 µM; TGI (TK-10 renal): > 90.1 µM; GI50 (UACC-257 melanoma): 98.4 µM; TGI (UACC-257 melanoma): > 100 µM
